Measurements from PubChem BioAssay (NCI).
Several values for one entry are separate records, joined by “and”; a condition that tells them apart may be missing. Identical values can stand only once.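 Each compound was tested at five concentrations against cells in 96-well plates for 48 hours. GI50: concentration for 50% inhibition of growth. TGI: total growth inhibition.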

Columns and labels:
Assay in all cases: NCI-60 cell line screen, 48 h
[1] = test system: BT-549 breast
[2] = test system: SN12C renal
[3] = test system: MCF7 breast
[4] = test system: MALME-3M melanoma
[5] = test system: A549 NSCLC
[6] = test system: SR leukemia
[7] = test system: 786-0 renal
[8] = test system: SNB-19 CNS
[9] = test system: MOLT-4 leukemia
[10] = test system: UACC-257 melanoma
[11] = test system: COLO 205 colon
[12] = test system: NCI/ADR-RES ovarian
[13] = test system: TK-10 renal
[14] = test system: EKVX NSCLC
[15] = test system: CAKI-1 renal
[16] = test system: U251 CNS
[17] = test system: CCRF-CEM leukemia
[18] = test system: LOX IMVI melanoma
[19] = test system: HCT-15 colon
[20] = test system: SK-MEL-5 melanoma
[21] = test system: NCI-H226 lung
[22] = test system: HT29 colon
[23] = test system: PC-3 prostate
[24] = test system: UO-31 renal
[25] = test system: MDA-MB-435
[26] = test system: RXF 393 renal
[27] = test system: OVCAR-8 ovarian
[28] = test system: M14 melanoma
[29] = test system: SK-OV-3 ovarian
[30] = test system: SF-295 CNS
[31] = test system: SK-MEL-2 melanoma
[32] = test system: NCI-H522 lung
[33] = test system: OVCAR-3 ovarian
[34] = test system: KM12 colon
[35] = test system: UACC-62 melanoma
[36] = test system: SW-620 colon
[37] = test system: HOP-62 NSCLC
[38] = test system: IGROV1 ovarian
[39] = test system: OVCAR-4 ovarian
[40] = test system: K-562 leukemia
[41] = test system: SF-539 CNS
[42] = test system: HCT-116 colon
[43] = test system: ACHN renal
[44] = test system: OVCAR-5 ovarian
[45] = test system: A498 renal
[46] = test system: T-47D breast
[47] = test system: SNB-75 CNS
[48] = test system: DU-145 prostate
[49] = test system: RPMI-8226 leukemia
[50] = test system: NCI-H23 lung
[51] = test system: NCI-H460 lung
[52] = test system: HS 578T breast
[53] = test system: HCC-2998 colon
[54] = test system: MDA-MB-231 breast
[55] = test system: SF-268 CNS
[56] = test system: SK-MEL-28 melanoma
[57] = test system: HOP-92 NSCLC
[58] = test system: HL-60(TB) leukemia

Compound: FC(F)(F)c1ccc(CNc2ccc(Cc3c[nH]c4ncc(Cl)cc34)cn2)cn1
- GI50 [1]: 14.5 µM and > 10 µM
- TGI [1]: 34.4 µM and > 10 µM
- GI50 [2]: 13.9 µM and > 10 µM
- TGI [2]: 30.6 µM and > 10 µM
- GI50 [3]: 6.34 µM and > 10 µM
- TGI [3]: 33.6 µM and > 10 µM
- GI50 [4]: 12.3 µM and > 10 µM
- TGI [4]: 30.7 µM and > 10 µM
- GI50 [5]: 10.5 µM and > 10 µM
- TGI [5]: 32.2 µM and > 10 µM
- GI50 [6]: 6.13 µM and 6.63 µM
- TGI [6]: 42.2 µM and > 10 µM
- GI50 [7]: 5.33 µM and 4.19 µM
- TGI [7]: 19.5 µM and > 10 µM
- GI50 [8]: 10.8 µM and > 10 µM
- TGI [8]: 37.2 µM and > 10 µM
- GI50 [9]: 4.02 µM and 3.28 µM
- TGI [9]: 21.9 µM and > 10 µM
- GI50 [10]: 11.5 µM and > 10 µM
- TGI [10]: 25.8 µM and > 10 µM
- GI50 [11]: 5.58 µM and > 10 µM
- TGI [11]: 20.6 µM and > 10 µM
- GI50 [12]: 7.68 µM and > 10 µM
- TGI [12]: 38.7 µM and > 10 µM
- GI50 [13]: 13.5 µM and > 10 µM
- TGI [13]: 36.4 µM and > 10 µM
- GI50 [14]: 7.89 µM and > 10 µM
- TGI [14]: 43.5 µM and > 10 µM
- GI50 [15]: 10.3 µM and > 10 µM
- TGI [15]: 30.8 µM and > 10 µM
- GI50 [16]: 10.1 µM and > 10 µM
- TGI [16]: 24.8 µM and > 10 µM
- GI50 [17]: 13.9 µM and 6.85 µM
- TGI [17]: 70.6 µM and > 10 µM
- GI50 [18]: 11.5 µM and > 10 µM
- TGI [18]: 26.3 µM and > 10 µM
- GI50 [19]: 10.1 µM and > 10 µM
- TGI [19]: 27.1 µM and > 10 µM
- GI50 [20]: 5.49 µM and 4.3 µM
- TGI [20]: 19.2 µM and > 10 µM
- GI50 [21]: 4.91 µM and 3.94 µM
- TGI [21]: 27.2 µM and > 10 µM
- GI50 [22]: 4.89 µM and > 10 µM
- TGI [22]: 17.3 µM and > 10 µM
- GI50 [23]: 9.65 µM and > 10 µM
- TGI [23]: 34 µM and > 10 µM
- GI50 [24]: 3.78 µM and 6.32 µM
- TGI [24]: 17.7 µM and > 10 µM
- GI50 [25]: 5.92 µM and > 10 µM
- TGI [25]: 22.7 µM and > 10 µM
- GI50 [26]: 9.75 µM and > 10 µM
- TGI [26]: 25.8 µM and > 10 µM
- GI50 [27]: 5.34 µM and > 10 µM
- TGI [27]: 28.6 µM and > 10 µM
- GI50 [28]: 4.62 µM and > 10 µM
- TGI [28]: 19.2 µM and > 10 µM
- GI50 [29]: 8.8 µM and > 10 µM
- TGI [29]: 32.5 µM and > 10 µM
- GI50 [30]: 4.83 µM and 5.24 µM
- TGI [30]: 24.4 µM and > 10 µM
- GI50 [31]: 17.6 µM and > 10 µM
- TGI [31]: 37.2 µM and > 10 µM
- GI50 [32]: 10.5 µM and > 10 µM
- TGI [32]: 29.3 µM and > 10 µM
- GI50 [33]: 14.4 µM and > 10 µM
- TGI [33]: 33.7 µM and > 10 µM
- GI50 [34]: 3.53 µM and 3.56 µM
- TGI [34]: 15.3 µM and > 10 µM
- GI50 [35]: 8.56 µM
- TGI [35]: 25 µM
- GI50 [36]: 10.6 µM and > 10 µM
- TGI [36]: 26.8 µM and > 10 µM
- GI50 [37]: 11.4 µM and > 10 µM
- TGI [37]: 29.4 µM and > 10 µM
- GI50 [38]: 12.2 µM and > 10 µM
- TGI [38]: 40.7 µM and > 10 µM
- GI50 [39]: 3.6 µM and 6.33 µM
- TGI [39]: 19.2 µM and > 10 µM
- GI50 [40]: 7.27 µM and 8.71 µM
- TGI [40]: 44.8 µM and > 10 µM
- GI50 [41]: 10.6 µM and 8.14 µM
- TGI [41]: 24.4 µM and > 10 µM
- GI50 [42]: 12.3 µM and > 10 µM
- TGI [42]: 27.4 µM and > 10 µM
- GI50 [43]: 13.2 µM and > 10 µM
- TGI [43]: 36 µM and > 10 µM
- GI50 [44]: 23 µM and > 10 µM
- TGI [44]: 50.8 µM and > 10 µM
- GI50 [45]: 2.08 µM and 4.41 µM
- TGI [45]: 14 µM and > 10 µM
- GI50 [46]: 4.36 µM and 4.5 µM
- TGI [46]: 28.3 µM and > 10 µM
- GI50 [47]: 2.2 µM and 2.48 µM
- TGI [47]: 13.6 µM and > 10 µM
- GI50 [48]: 12.4 µM and > 10 µM
- TGI [48]: 33.6 µM and > 10 µM
- GI50 [49]: 5.76 µM and 5.99 µM
- TGI [49]: 44.2 µM and > 10 µM
- GI50 [50]: 10.3 µM and > 10 µM
- TGI [50]: 32 µM and > 10 µM
- GI50 [51]: 12.9 µM and > 10 µM
- TGI [51]: 30 µM and > 10 µM
- GI50 [52]: 3.33 µM and 2.55 µM
- TGI [52]: 32.2 µM and > 10 µM
- GI50 [53]: 12.5 µM and > 10 µM
- TGI [53]: 30.3 µM and > 10 µM
- GI50 [54]: 8.7 µM and > 10 µM
- TGI [54]: 26.1 µM and > 10 µM
- GI50 [55]: 6.25 µM and > 10 µM
- TGI [55]: 29.3 µM and > 10 µM
- GI50 [56]: 13.2 µM and > 10 µM
- TGI [56]: 30.2 µM and > 10 µM
- GI50 [57]: 9.46 µM and 3.77 µM
- TGI [57]: 28.6 µM and > 10 µM
- GI50 [58]: 16.5 µM and > 10 µM
- TGI [58]: 49.4 µM and > 10 µM
